Measurements published in patent US20160244411A1, “TAU IMAGING PROBE” (CLINO LTD., priority 2013, published 2016).
Like-named read-outs stand apart in the source and are kept apart here. Blank lines part the entries; values can stand above or below the compound they belong to.

Key:
[1] = target: AD brain tissue homogenates (Homo sapiens, UniProt P10636); test: Competitive binding test using [3H]THK-5117 as radio ligand with AD brain tissue homogenates; conditions: 2 nM [3H]THK-5117, 100 μg homogenate, 3 hours room temperature
Method: Binding Experiment (1) with AD Brain Tissue Homogenates Competitive Binding Test Using [^3H]THK-5117 as Radio Ligand
PBS (0.1% BSA) was used as an assay buffer, and the concentration of TI-IK-5105S or THK-5105R was adjusted with 2 nM [^3H] THK-5117 to 10^−5 to 10^−10 M in a reaction system (200 μL) containing 100 μg of the homogenates, and the competitive tests were then carried out. A nonspecific binding was measured with 2 μM of THK-5117. After incubation at room temperature for 3 hours, a glass filter plate was used to separate [^3H]THK-5117 bound to the homogenates and unbound [^3H] THK-5117, and the filter plate was washed, and then to the separated filter was added liquid scintillation cocktail, and the bound radioactivity was measured on a liquid scintillation counter. The data was analyzed by analysis software GraphPad Prism (Ver. 5). The competitive tests were carried out similarly on THK-5117S, THK-5117R, THK-5151S, and THK-5151R.

[2] = Dynamic evaluation of normal mouse brain by small animal PET; assay type: in vivo, ICR mouse
Method: For experiments in small animal PET (evaluation of its brain delivery), Polysorbate 80 was added to the ethanol-eluted fraction, from which the ethanol was removed using an evaporator. The [^18F] THK-5105S containing radioactive residue within the flask was dissolved in physiological saline and the solution prepared was used as a solution for injection.
In this experiment, […] was administered intravenously via tail to ICR mouse (male 6 to 7 weeks old) under isoflurane anesthesia (1.5%), and the time-change of radioactivity distribution in brain was measured on Clairvivopet/CT (manufactured by Shimadzu Corporation, Kyoto). The emission scan was started simultaneously with the administration of the probe, and measured in 3D list mode for 120 min. After imaging, 35 frames (10×60 s, 10×120 s, […]) were reconstructed, and a region of interest was set in the brain, and quantified as SUV, and a time-activity curve (TAC) was created, and the Dynamism of the both probes were compared.
THK-5105R. In order to compare the disappearance change, the peak values of the TAC for both probes were converted into 100%, and the TAC was then shown as FIG. 7B. As evident from the TACs, [^18F]THK-51055 has larger ratio of disappearance per hour than [^18F]THK-5105R, that is, has more rapid rate of disappearance.
THK-5105R, and can therefore detect tau lesion with more excellent selectivity.

[3] = tested on: amyloid β (Aβ); test: Tissue binding test with 10 AD homogenate samples, correlation with Aβ concentration; design: species or system human; conditions: 1 nM probe, 100 μg tissue, 1 hour incubation
Method: (§1) Binding Experiment (2) with AD Brain Tissue Homogenates Organization Binding Evaluation Experiment of [^18F]THK-5105S
(§2) According to the above-mentioned assay buffer, nonspecific binding measurement, and filter separation operation, using 10 kinds of AD homogenate samples each having different tau concentration and amyloid β (Aβ) concentration, the reaction system was adjusted such that the tissue concentration was made 100 μg and [^18F]THK-5105S concentration was made 1 nM, and the binding test (1 hour incubation) was carried out in the reaction system.
(§3) As comparative example, the binding test was carried out also on [^18F]THK-5105R according to the similar method. The tau concentration or Aβ concentration was plotted on horizontal axis […], and the bound amount of [^18F]THK-5105S and [^18F]THK-5105R was plotted on vertical axis, and the correlation thereof was evaluated.
(§4) This means that when imaging, [^18F]THK-5105S can be detected the change of the tau concentration more sensitively.

[4] = tested on: tau lesion region; test: Autoradiography of hippocampus sections of an Alzheimer's disease patient; assay type: binding, human; conditions: AD hippocampus section, about 400 μCi/ml, in comparison with the corresponding R-form
Method: A brain specimen in hippocampus of the patient which was definitively-diagnosed as Alzheimer's disease pathologically was used. A paraffin-embedded brain tissue was sliced by 6 μm or 8 μm thick, and stretched on a glass slide, and dried. The paraffin brain sections were deparaffinized by washing sequentially with xylene 10 min.×2, 100% ethanol 5 min.×2, 90% ethanol 5 min., and flowing water 10 min. After deparaffinization, the sections were immersed in PBS. Each of about 400 μCi/ml of [^18F]THK-5105S and [^18F]THK-5105R was added dropwise to the sections, and the sections were allowed to a reaction at room temperature for 10 min. Thereafter, the sections were immersed in distilled water for 2 min., and successively, shaked lightly in 50% EtOH for 2 min., and thereafter immersed in distilled water for 2 min. again, and dried on paraffin stretching plate. Then, the sections were contacted with imaging plate, and allowed to stand overnight, and on next day, the imaging was read on BAS5000 (manufactured by FUJIFILM Holdings Corporation).
The autoradiography experiments were also carried out similarly on [^18F]THK-5151S and [^18F]THK-5151R.
THK-5105R and [^18F] THK-5151R in tau lesion region, which means that they binds more strongly to tau pathology.

[5] = tested on: tau; test: Tissue binding test with 10 AD homogenate samples, correlation with tau concentration; design: species or system human; conditions: 1 nM probe, 100 μg tissue, 1 hour incubation, in comparison with [18F]THK-5105R
Method: as §1, §2, §3, §4

[6] = Dynamic evaluation of normal mouse brain by biodistribution method; assay type: in vivo, ICR mouse
Method: A saline comprising [^18F]THK-5105S or [18F]THK-5105R was administered intravenously via tail to ICR mouse (male 6 to 7 weeks old), and the time change of radioactivity distribution in brain was measured on Clairvivopet/CT (manufactured by Shimadzu Corporation, Kyoto). The brain dynamics was evaluated by the time-change of the accumulation rate of radioactivity in brain tissue after 2 min., 10 min., 30 min., 60 min., and 120 min.
The accumulation rate of radioactivity was calculated as the ratio of radioactivity per weight of evaluated tissue against total administered radioactivity (% Injected Dose/g of tissue; % ID/g). The measurement of the radioactivity was carried out with Gamma counter (Accuflex γ7000, measured by Hitachi-Aloka Medical, Tokyo). The experimental procedure was as follows. After administering the label compound intravenously via tail at 2 min., 10 min., 30 min., 60 min., and 120 min., cervical dislocation of mouse was performed under ether anesthesia, and organ tissues were extracted. The radioactivity and the weight of each sample were measured, and the data was analyzed to calculate % ID/g. Also, as the evaluation index for the disappearance from the brain, the divided value of the accumulation rate at 2 min. after administration by the accumulation rate at 60 min. after administration (2 min./60 min. ratio) was calculated.

[7] = tested on: AD hippocampus tissue homogenate (tau lesion); test: Saturation binding experiment with AD hippocampus tissue homogenate; design: species or system human; conditions: 0.1 to 100 nM
Method: Further, according to the above-mentioned assay buffer, nonspecific binding measurement, and filter separation operation, each saturation binding experiment of [^18F]THK-5151S and [^18F]THK-5151R was carried out with AD hippocampus tissue homogenate. Zero point one (0.1) to 100 nM of each tested substance was incubated with hippocampus homogenate, and then filtered with a filter, washed, and then measured radioactivity supplemented by the filter, and thereby calculated as total binding and nonspecific binding at each concentration. The data was analyzed with GraphPad Prism (Ver. 5) to calculate binding dissociation constants Kd and Bmax. The binding curve of the results and the analysis results are shown as FIG. 6c.

[8] = read-out: Ki Temporal lobe cortex (607.6 pmol/g tissue)
[9] = read-out: Ki Entorhinal cortex 601 pmol/g tissue
[10] = intravenous via tail, in comparison with [18F]THK-5105R

Chain of AD brain tissue homogenates (P10636 623-695 limits assumed): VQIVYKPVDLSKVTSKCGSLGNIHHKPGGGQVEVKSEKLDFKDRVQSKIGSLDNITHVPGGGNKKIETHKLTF

Structure (SMILES): CNc1ccc(-c2ccc3cc(OC[C@H](O)CF)ccc3n2)cn1 [THK-5151S]
Ki [1, 8]: 7.2 ± 1.27 nM

Structure (SMILES): CN(C)c1ccc(-c2ccc3cc(OC[C@@H](O)CF)ccc3n2)cc1 [THK-5105R, reference compound]
Ki [1, 9]: 27.4 nM
Ki [1, 8]: 16.3 nM

Structure (SMILES): CN(C)c1ccc(-c2ccc3cc(OCC(O)C[18F])ccc3n2)cc1 (centres unmarked) [[^18F]THK-5105R, reference compound]
SUV Ratio 5 min./30 min. ([2]; brain, intravenous via tail): 1.92 ± 0.3
SUV Ratio 5 min./60 min. ([2]; brain, intravenous via tail): 3.67 ± 0.9
SUV Ratio 5 min./120 min. ([2]; brain, intravenous via tail): 7.75 ± 1.6
correlation of tissue bound amount with the Aβ concentration [3]: could not be found to have a correlation with the Aβ concentration

Structure (SMILES): CN(C)c1ccc(-c2ccc3cc(OC[C@H](O)C[18F])ccc3n2)cc1 [[^18F]THK-5105S]
autoradiography imaging signal in tau lesion region [4]: stronger imaging signal

Structure (SMILES): CN(C)c1ccc(-c2ccc3cc(OC[C@H](O)CF)ccc3n2)cc1 [THK-5105S]
Ki [1, 9]: 4.6 nM
Ki [1, 8]: 2.6 nM

Structure (SMILES): CNc1ccc(-c2ccc3cc(OCC(O)CF)ccc3n2)cc1 (centres unmarked) [THK-5117R, reference compound]
Ki [1, 8]: 25.7 ± 10.7 nM

The next lines start with results.

Ki [1, 8]: 9.4 ± 4.8 nM
Structure (SMILES): CNc1ccc(-c2ccc3cc(OC[C@H](O)CF)ccc3n2)cc1 [THK-5117S]

SUV ratios 5 min./30 min., 5 min./60 min., 5 min./120 min. compared between probes ([2]; brain, in comparison with [18F]THK-5105R): significantly higher value
SUV Ratio 5 min./30 min. ([2]; brain, intravenous via tail): 2.70 ± 0.1
SUV Ratio 5 min./60 min. ([2]; brain, intravenous via tail): 6.27 ± 0.6
SUV Ratio 5 min./120 min. ([2]; brain, intravenous via tail): 19.2 ± 4.4
tissue bound amount [5]: higher bound amount
Structure (SMILES): CN(C)c1ccc(-c2ccc3cc(OC[C@H](O)CF)ccc3n2)cc1 [[^18F]THK-5105S]
disappearance from normal brain tissue (time-activity curve) [2, 10]: disappeared more rapidly from normal brain tissue
retention into the normal brain tissue [2, 10]: lower retention into the normal brain tissue
correlation of tissue bound amount with the Aβ concentration [3]: could not be found to have a correlation with the Aβ concentration
correlation of tissue bound amount with the tau concentration [5]: extremely higher correlation with the tau concentration

accumulation rate of radioactivity in brain, 2 min. ([6]; 2 min. after intravenous administration, n = 4): 4.36 ± 0.19 % ID/g
accumulation rate of radioactivity in brain, 10 min. ([6]; 10 min. after intravenous administration, n = 4): 1.10 ± 0.19 % ID/g
accumulation rate of radioactivity in brain, 30 min. ([6]; 30 min. after intravenous administration, n = 4): 0.21 ± 0.03 % ID/g
accumulation rate of radioactivity in brain, 60 min. ([6]; 60 min. after intravenous administration, n = 4): 0.13 ± 0.03 % ID/g
accumulation rate of radioactivity in brain, 120 min. ([6]; 120 min. after intravenous administration, n = 4): 0.12 ± 0.02 % ID/g
2 min./60 min. ratio ([6]; brain accumulation rate at 2 min. divided by that at 60 min.): 33
accumulation rate value after the initial uptake, compared between probes ([6]; in comparison with [18F]THK-5151R): lower values
brain uptake shortly after administration ([6]; shortly after administration): about 4 % ID/g
Bmax/Kd value as bonding potential in comparison with [18F]THK-5151R [7]: about fourth times large Bmax/Kd value
Kd value in comparison with [18F]THK-5151R [7]: about one tenth small Kd value
Structure (SMILES): CNc1ccc(-c2ccc3cc(OC[C@H](O)CF)ccc3n2)cn1 [[^18F]THK-5151S]
autoradiography imaging signal in tau lesion region [4]: stronger imaging signal
